PubChem BioAssay (NCI)
Values joined by “and” are separate entries in the source; they are usually repeats but may differ in a detail not shown here. Equal entries are not always repeated.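 96-well plates; 48 h exposure; 5 concentrations. Endpoints by linear interpolation between flanking doses. Not reached: highest tested concentration assigned. GI50 marks 50% less growth. TGI is the concentration that stops growth completely.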

Legend:
Assay in all cases: NCI-60 cell line screen, 48 h
786-0 renal = system: 786-0 renal
A498 renal = system: A498 renal
A549 NSCLC = system: A549 NSCLC
ACHN renal = system: ACHN renal
BT-549 breast = system: BT-549 breast
CAKI-1 renal = system: CAKI-1 renal
CCRF-CEM leukemia = system: CCRF-CEM leukemia
DLD-1 colon = system: DLD-1 colon
DMS 114 small cell lung = system: DMS 114 small cell lung
DMS 273 small cell lung = system: DMS 273 small cell lung
DU-145 prostate = system: DU-145 prostate
EKVX NSCLC = system: EKVX NSCLC
HCC-2998 colon = system: HCC-2998 colon
HCT-116 colon = system: HCT-116 colon
HCT-15 colon = system: HCT-15 colon
HL-60(TB) leukemia = system: HL-60(TB) leukemia
HOP-18 NSCLC = system: HOP-18 NSCLC
HOP-62 NSCLC = system: HOP-62 NSCLC
HS 578T breast = system: HS 578T breast
HT29 colon = system: HT29 colon
IGROV1 ovarian = system: IGROV1 ovarian
K-562 leukemia = system: K-562 leukemia
KM12 colon = system: KM12 colon
KM20L2 colon = system: KM20L2 colon
LOX IMVI melanoma = system: LOX IMVI melanoma
LXFL 529 NSCLC = system: LXFL 529 NSCLC
M14 melanoma = system: M14 melanoma
M19-MEL melanoma = system: M19-MEL melanoma
MALME-3M melanoma = system: MALME-3M melanoma
MCF7 breast = system: MCF7 breast
MDA-MB-231 breast = system: MDA-MB-231 breast
MDA-MB-435 = system: MDA-MB-435
MDA-N = system: MDA-N
MOLT-4 leukemia = system: MOLT-4 leukemia
NCI-H226 lung = system: NCI-H226 lung
NCI-H23 lung = system: NCI-H23 lung
NCI-H460 lung = system: NCI-H460 lung
NCI-H522 lung = system: NCI-H522 lung
OVCAR-3 ovarian = system: OVCAR-3 ovarian
OVCAR-4 ovarian = system: OVCAR-4 ovarian
OVCAR-5 ovarian = system: OVCAR-5 ovarian
OVCAR-8 ovarian = system: OVCAR-8 ovarian
PC-3 prostate = system: PC-3 prostate
RPMI-8226 leukemia = system: RPMI-8226 leukemia
RXF 393 renal = system: RXF 393 renal
RXF-631 renal = system: RXF-631 renal
SF-268 CNS = system: SF-268 CNS
SF-295 CNS = system: SF-295 CNS
SF-539 CNS = system: SF-539 CNS
SK-MEL-2 melanoma = system: SK-MEL-2 melanoma
SK-MEL-28 melanoma = system: SK-MEL-28 melanoma
SK-MEL-5 melanoma = system: SK-MEL-5 melanoma
SK-OV-3 ovarian = system: SK-OV-3 ovarian
SN12C renal = system: SN12C renal
SNB-19 CNS = system: SNB-19 CNS
SNB-75 CNS = system: SNB-75 CNS
SNB-78 CNS = system: SNB-78 CNS
SR leukemia = system: SR leukemia
SW-620 colon = system: SW-620 colon
T-47D breast = system: T-47D breast
TK-10 renal = system: TK-10 renal
U251 CNS = system: U251 CNS
UACC-257 melanoma = system: UACC-257 melanoma
UACC-62 melanoma = system: UACC-62 melanoma
UO-31 renal = system: UO-31 renal
XF 498 CNS = system: XF 498 CNS
COLO 205 colon = system: COLO 205 colon
HOP-92 NSCLC = system: HOP-92 NSCLC

## CCC/C(=N\NC(=S)N1CCN(c2ccccn2)CC1)c1ccccn1
786-0 renal
  GI50: 28.4 nM
  TGI: 1820 nM and 1940 nM
A498 renal
  GI50: 194 nM
  TGI: 3930 nM and 1360 nM
A549 NSCLC
  GI50: 32 nM
  TGI: > 3160 nM and 1930 nM
ACHN renal
  GI50: 15.6 nM
  TGI: > 3160 nM and 1240 nM
BT-549 breast
  TGI: 1920 nM
CAKI-1 renal
  GI50: 14.3 nM
  TGI: > 5370 nM and 1920 nM
CCRF-CEM leukemia
  GI50: < 1 nM
  TGI: 21.6 nM and 28.1 nM
DLD-1 colon
  TGI: 1330 nM and 1340 nM
DMS 114 small cell lung
  TGI: 111 nM
DMS 273 small cell lung
  TGI: 1370 nM and 1420 nM
DU-145 prostate
  TGI: 2370 nM
EKVX NSCLC
  GI50: 30.8 nM
HCC-2998 colon
  GI50: 46.2 nM
  TGI: 1640 nM and 1590 nM
HCT-116 colon
  TGI: > 3550 nM
HCT-15 colon
  TGI: 1550 nM and 1750 nM
HL-60(TB) leukemia
  TGI: 45.8 nM
HOP-18 NSCLC
  GI50: 31.6 nM
  TGI: 680 nM and 1150 nM
HOP-62 NSCLC
  GI50: 60.3 nM
  TGI: 2920 nM and 1590 nM
HS 578T breast
  TGI: 3760 nM
HT29 colon
  TGI: > 5390 nM
IGROV1 ovarian
  TGI: 2300 nM and 3110 nM
K-562 leukemia
  TGI: 110 nM
KM12 colon
  TGI: 640 nM and 1520 nM
KM20L2 colon
  TGI: 1580 nM
LOX IMVI melanoma
  TGI: 3190 nM and 1540 nM
LXFL 529 NSCLC
  TGI: 75.7 nM and 241 nM
M14 melanoma
  GI50: 122 nM
  TGI: 318 nM
M19-MEL melanoma
  GI50: 53.4 nM
  TGI: 1320 nM and 1740 nM
MALME-3M melanoma
  TGI: 565 nM and 2070 nM
MCF7 breast
  TGI: 1410 nM
MDA-MB-231 breast
  TGI: 1910 nM
MDA-MB-435
  TGI: 1960 nM
MDA-N
  TGI: 1920 nM
MOLT-4 leukemia
  GI50: 9.25 nM
  TGI: > 10000 nM and 1050 nM
NCI-H226 lung
  GI50: 136 nM
  TGI: 3670 nM and 1750 nM
NCI-H23 lung
  TGI: > 10000 nM and 2430 nM
NCI-H460 lung
  TGI: > 4190 nM
NCI-H522 lung
  TGI: 307 nM
OVCAR-3 ovarian
  TGI: 615 nM and 1140 nM
OVCAR-4 ovarian
  GI50: 39.8 nM
  TGI: > 5770 nM and 2310 nM
OVCAR-5 ovarian
  GI50: 113 nM
  TGI: > 4360 nM
OVCAR-8 ovarian
  TGI: 476 nM and 1500 nM
PC-3 prostate
  TGI: 1260 nM
RPMI-8226 leukemia
  TGI: 24 nM and 12.8 nM
RXF 393 renal
  GI50: 10.2 nM
  TGI: 2080 nM and 1380 nM
RXF-631 renal
  GI50: 38.4 nM
  TGI: > 10000 nM and 2340 nM
SF-268 CNS
  TGI: > 10000 nM and 1850 nM
SF-295 CNS
  TGI: 6140 nM and 1260 nM
SF-539 CNS
  GI50: 150 nM and 145 nM
  TGI: 1820 nM and 1110 nM
SK-MEL-2 melanoma
  GI50: 190 nM
  TGI: 312 nM and 1650 nM
SK-MEL-28 melanoma
  TGI: > 10000 nM and 1470 nM
SK-MEL-5 melanoma
  TGI: 2410 nM and 1570 nM
SK-OV-3 ovarian
  GI50: 1340 nM
  TGI: 2150 nM and 2680 nM
SN12C renal
  GI50: 339 nM
  TGI: 1940 nM and 1460 nM
SNB-19 CNS
  TGI: > 4240 nM and 1700 nM
SNB-75 CNS
  TGI: 1840 nM and 325 nM
SNB-78 CNS
  GI50: 1080 nM
  TGI: > 10000 nM and 4240 nM
SR leukemia
  TGI: 117 nM
SW-620 colon
  GI50: 11.7 nM
  TGI: 1360 nM and 1210 nM
T-47D breast
  TGI: 389 nM
TK-10 renal
  GI50: 1090 nM
  TGI: > 5420 nM and 2460 nM
U251 CNS
  TGI: 480 nM and 1380 nM
UACC-257 melanoma
  TGI: 224 nM and 1870 nM
UACC-62 melanoma
  TGI: 242 nM and 1430 nM
UO-31 renal
  GI50: 52.9 nM
  TGI: 3420 nM and 1440 nM
XF 498 CNS
  TGI: 302 nM

## O=C(CCN1CCN(c2cccc(Cl)c2)CC1)N1CCc2c([nH]c3ccccc23)C1c1cccnc1 (centres undefined)
786-0 renal
  GI50: 5960 nM
  TGI: 18700 nM
A498 renal
  GI50: 5560 nM
  TGI: 20200 nM
A549 NSCLC
  TGI: 19000 nM
ACHN renal
  GI50: 6340 nM
  TGI: 21600 nM
CAKI-1 renal
  TGI: 14300 nM
CCRF-CEM leukemia
  GI50: 6620 nM
  TGI: > 100000 nM
COLO 205 colon
  GI50: 4830 nM
  TGI: 15600 nM
DLD-1 colon
  GI50: 8090 nM
  TGI: 25400 nM
DMS 273 small cell lung
  GI50: 6600 nM
  TGI: 19100 nM
EKVX NSCLC
  TGI: 26300 nM
HCC-2998 colon
  GI50: 2910 nM
  TGI: 4040 nM and 8050 nM
HCT-116 colon
  GI50: 6360 nM
  TGI: 18300 nM
HCT-15 colon
  GI50: 5180 nM
  TGI: 18000 nM
HL-60(TB) leukemia
  GI50: 3190 nM
  TGI: 5530 nM and 11200 nM
HOP-18 NSCLC
  TGI: 32500 nM
HOP-62 NSCLC
  TGI: 23900 nM
HOP-92 NSCLC
  GI50: 12300 nM
  TGI: 9520 nM and 35700 nM
HT29 colon
  GI50: 4130 nM
  TGI: 16400 nM
IGROV1 ovarian
  GI50: 18700 nM
  TGI: > 100000 nM
K-562 leukemia
  GI50: 3990 nM
  TGI: 18600 nM
KM12 colon
  GI50: 5040 nM
  TGI: 15900 nM
KM20L2 colon
  GI50: 4710 nM
  TGI: 20100 nM
LOX IMVI melanoma
  GI50: 6500 nM
  TGI: 20500 nM
LXFL 529 NSCLC
  GI50: 6240 nM
  TGI: 19600 nM
M14 melanoma
  GI50: 6060 nM
  TGI: 9220 nM and 19000 nM
M19-MEL melanoma
  TGI: 26400 nM
MALME-3M melanoma
  GI50: 14900 nM
  TGI: 36800 nM
MOLT-4 leukemia
  GI50: 4650 nM
  TGI: 26600 nM
NCI-H226 lung
  TGI: 49900 nM
NCI-H23 lung
  GI50: 11200 nM
  TGI: 28000 nM
NCI-H460 lung
  TGI: 16900 nM
NCI-H522 lung
  GI50: 4850 nM
  TGI: 19100 nM
OVCAR-3 ovarian
  GI50: 7670 nM
  TGI: 8770 nM and 20100 nM
OVCAR-4 ovarian
  GI50: 4230 nM
  TGI: 18400 nM
OVCAR-5 ovarian
  GI50: 5750 nM
  TGI: 23300 nM
OVCAR-8 ovarian
  TGI: 21700 nM
RXF 393 renal
  GI50: 6310 nM
  TGI: 21000 nM
RXF-631 renal
  GI50: 8640 nM
  TGI: > 100000 nM
SF-539 CNS
  TGI: 31200 nM
SK-MEL-2 melanoma
  GI50: 5240 nM
  TGI: 18200 nM
SK-MEL-28 melanoma
  TGI: 26900 nM
SK-MEL-5 melanoma
  GI50: 7720 nM
  TGI: 21900 nM
SK-OV-3 ovarian
  GI50: 13400 nM
  TGI: 28800 nM
SN12C renal
  GI50: 7590 nM
  TGI: 21100 nM
SNB-19 CNS
  TGI: 26900 nM
SNB-75 CNS
  GI50: 6240 nM
  TGI: 17100 nM
SNB-78 CNS
  TGI: 9970 nM
SR leukemia
  GI50: 5060 nM
  TGI: 7830 nM and 27000 nM
SW-620 colon
  TGI: 23800 nM
TK-10 renal
  GI50: 2530 nM
  TGI: 10900 nM
U251 CNS
  GI50: 9960 nM
  TGI: 21500 nM
UACC-257 melanoma
  GI50: 6430 nM
  TGI: 21300 nM
UO-31 renal
  GI50: 4700 nM
  TGI: 16200 nM
XF 498 CNS
  TGI: 9570 nM
